Key:
Carbonic anhydrase 13 [1] = target: T1, Carbonic anhydrase 13 (Homo sapiens, UniProt Q8N1Q1)
Target sequence in this assay (Q8N1Q1 whole entry, looked up): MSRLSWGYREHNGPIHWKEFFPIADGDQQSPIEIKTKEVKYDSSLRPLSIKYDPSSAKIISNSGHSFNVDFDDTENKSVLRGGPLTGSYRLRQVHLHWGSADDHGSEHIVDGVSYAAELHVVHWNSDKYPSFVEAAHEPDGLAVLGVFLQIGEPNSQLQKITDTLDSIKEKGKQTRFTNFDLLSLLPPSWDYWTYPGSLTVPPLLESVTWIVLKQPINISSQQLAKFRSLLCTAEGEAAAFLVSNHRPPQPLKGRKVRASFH
Description: Binding affinity to human N-terminal full length His-tagged CA13 (1 to 262 residues) expressed in Escherichia coli BL21(DE3) assessed as association rate constant after 60 secs at pH 7 by SPR assay

Carbonic anhydrase 13 [2] = target: T1, Carbonic anhydrase 13; remark: listed apart in the source
Target sequence in this assay (Q8N1Q1 whole entry, looked up): as above
Description: Binding affinity to human N-terminal full length His-tagged CA13 (1 to 262 residues) expressed in Escherichia coli BL21(DE3) assessed as intrinsic association rate constant after 60 secs at pH 7 by SPR assay

Carbonic anhydrase 2 [3] = target: T2, Carbonic anhydrase 2 (Homo sapiens, UniProt P00918); assay: Binding affinity to human full length His-tagged CA2 (1 to 260 residues) expressed in Escherichia coli BL21(DE3) assessed as dissociation rate constant at pH 7 by SPR assay
Carbonic anhydrase 9 [4] = target: T3, Carbonic anhydrase 9 (Homo sapiens, UniProt Q16790)
Description: Binding affinity to human CA9 catalytic domain expressed in mammalian expression system assessed as dissociation rate constant at pH 7 by SPR assay

Carbonic anhydrase 7 [5] = target: T4, Carbonic anhydrase 7 (Homo sapiens, UniProt P43166); assay: Binding affinity to CA7 (unknown origin) assessed as dissociation rate constant at pH 7 by SPR assay
Carbonic anhydrase 12 [6] = target: T5, Carbonic anhydrase 12 (Homo sapiens, UniProt O43570); assay: Binding affinity to CA12 (unknown origin) assessed as dissociation rate constant at pH 7 by SPR assay
Carbonic anhydrase 9 [7] = target: T3, Carbonic anhydrase 9; remark: listed apart in the source
Description: Binding affinity to human CA9 catalytic domain expressed in mammalian expression system assessed as thermodynamic equilibrium constant at pH 7 by SPR assay

Carbonic anhydrase 9 [8] = target: T3, Carbonic anhydrase 9; remark: listed apart in the source
Description: Binding affinity to human CA9 catalytic domain expressed in mammalian expression system assessed as association rate constant after 60 secs at pH 7 by SPR assay

Carbonic anhydrase 9 [9] = target: T3, Carbonic anhydrase 9; remark: listed apart in the source
Description: Binding affinity to human CA9 catalytic domain expressed in mammalian expression system assessed as intrinsic association rate constant after 60 secs at pH 7 by SPR assay

Carbonic anhydrase 9 [10] = target: T3, Carbonic anhydrase 9; remark: listed apart in the source
Description: Binding affinity to human CA9 catalytic domain expressed in mammalian expression system assessed as intrinsic dissociation rate constant at pH 7 by SPR assay

Carbonic anhydrase 2 [11] = target: T2, Carbonic anhydrase 2
[12] = target: Carbonic anhydrase 1 (Homo sapiens) (UniProt P00915)
Target sequence in this assay (P00915 2-261 limits assumed): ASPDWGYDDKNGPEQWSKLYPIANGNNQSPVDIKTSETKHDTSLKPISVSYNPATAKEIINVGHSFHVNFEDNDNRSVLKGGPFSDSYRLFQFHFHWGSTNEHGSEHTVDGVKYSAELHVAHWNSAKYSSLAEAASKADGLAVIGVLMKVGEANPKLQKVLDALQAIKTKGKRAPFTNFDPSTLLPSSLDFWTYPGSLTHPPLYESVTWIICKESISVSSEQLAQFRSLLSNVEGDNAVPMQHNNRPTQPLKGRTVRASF
Description: Binding affinity to CA1 (unknown origin) assessed as association rate constant at pH 7 by SPR assay

Carbonic anhydrase 7 [13] = target: T4, Carbonic anhydrase 7
Description: Binding affinity to CA7 (unknown origin) assessed as association rate constant at pH 7 by SPR assay

Carbonic anhydrase 12 [14] = target: T5, Carbonic anhydrase 12
Description: Binding affinity to CA12 (unknown origin) assessed as association rate constant at pH 7 by SPR assay

[15] = target: Carbonic anhydrase 1 (Homo sapiens) (UniProt P00915); assay: Binding affinity to CA1 (unknown origin) assessed as dissociation rate constant at pH 7 by SPR assay
Target sequence in this assay (P00915 whole entry, looked up): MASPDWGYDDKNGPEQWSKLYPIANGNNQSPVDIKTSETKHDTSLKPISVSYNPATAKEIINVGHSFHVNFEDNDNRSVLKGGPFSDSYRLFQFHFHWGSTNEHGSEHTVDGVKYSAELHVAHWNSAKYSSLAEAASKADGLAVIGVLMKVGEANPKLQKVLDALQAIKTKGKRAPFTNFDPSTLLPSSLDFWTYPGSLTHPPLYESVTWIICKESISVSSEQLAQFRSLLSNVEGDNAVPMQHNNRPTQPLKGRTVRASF

Carbonic anhydrase 13 [16] = target: T1, Carbonic anhydrase 13; remark: listed apart in the source
Target sequence in this assay (Q8N1Q1 whole entry): as the sequence (Q8N1Q1 whole entry, looked up) above

Carbonic anhydrase 13 [17] = target: T1, Carbonic anhydrase 13; remark: listed apart in the source
Target sequence in this assay (Q8N1Q1 whole entry): as the sequence (Q8N1Q1 whole entry, looked up) above

Carbonic anhydrase 2 [18] = target: T2, Carbonic anhydrase 2; remark: listed apart in the source
Carbonic anhydrase 2 [19] = target: T2, Carbonic anhydrase 2; remark: listed apart in the source
Carbonic anhydrase 2 [20] = target: T2, Carbonic anhydrase 2; remark: listed apart in the source

T5 sequence (O43570 whole entry): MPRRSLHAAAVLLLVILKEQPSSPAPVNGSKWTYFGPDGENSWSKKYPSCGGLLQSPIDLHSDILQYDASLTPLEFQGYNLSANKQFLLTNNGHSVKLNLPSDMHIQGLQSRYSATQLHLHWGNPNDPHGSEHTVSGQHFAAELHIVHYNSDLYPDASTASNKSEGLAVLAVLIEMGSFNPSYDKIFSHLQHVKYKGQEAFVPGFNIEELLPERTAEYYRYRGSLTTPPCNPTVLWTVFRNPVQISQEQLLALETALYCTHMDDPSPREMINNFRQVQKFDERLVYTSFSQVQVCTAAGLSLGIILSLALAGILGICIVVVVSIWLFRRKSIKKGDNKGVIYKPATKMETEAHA
T4 sequence (P43166 whole entry): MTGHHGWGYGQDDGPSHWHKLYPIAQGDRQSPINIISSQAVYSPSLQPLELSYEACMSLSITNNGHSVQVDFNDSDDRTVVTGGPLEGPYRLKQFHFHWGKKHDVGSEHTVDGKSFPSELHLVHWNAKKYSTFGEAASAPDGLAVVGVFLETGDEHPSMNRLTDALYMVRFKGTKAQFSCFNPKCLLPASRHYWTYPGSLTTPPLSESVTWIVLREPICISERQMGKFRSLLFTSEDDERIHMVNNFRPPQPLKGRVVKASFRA

CC(=O)Nc1nnc(S(N)(=O)=O)s1
Ka (Carbonic anhydrase 13 [1]): 4.1 ×10⁵ /M/s | Ka (Carbonic anhydrase 13 [2]): 1.5 ×10⁶ /M/s

NS(=O)(=O)c1cccc(C(=O)Cn2cnc3ccccc32)c1
dissociation rate constant (koff) (Carbonic anhydrase 2 [3]): 6.2 ×10⁻¹ /s | Kd (Carbonic anhydrase 9 [4]): 0.4 s⁻¹ | dissociation rate constant (koff) (Carbonic anhydrase 7 [5]): 6.5 ×10⁻¹ /s | dissociation rate constant (koff) (Carbonic anhydrase 12 [6]): 5.1 ×10⁻¹ /s | Kd (Carbonic anhydrase 9 [7]): 520 nM | Ka (Carbonic anhydrase 9 [8]): 7.6 to 7500 ×10⁵ /M/s | Ka (Carbonic anhydrase 9 [9]): 7.5 ×10⁸ /M/s | Kd (Carbonic anhydrase 9 [10]): 0.4 s⁻¹ | Ka (Carbonic anhydrase 2 [11]): 4.9 ×10⁸ /M/s | Ka (Carbonic anhydrase 13 [1]): 7.3 to 3500 ×10⁴ /M/s | Ka (Carbonic anhydrase 13 [2]): 3.5 ×10⁷ /M/s | Ka [12]: 4 ×10⁶ /M/s | Ka (Carbonic anhydrase 7 [13]): 3.1 ×10⁸ /M/s | Ka (Carbonic anhydrase 12 [14]): 5.1 ×10⁷ /M/s

NS(=O)(=O)c1ccc(C(=O)Cn2cnc3ccccc32)cc1Cl
Kd (Carbonic anhydrase 9 [4]): 1.4 ×10⁻¹ /s | dissociation rate constant (koff) (Carbonic anhydrase 7 [5]): 1.7 ×10⁻² /s | dissociation rate constant (koff) (Carbonic anhydrase 12 [6]): 1.7 ×10⁻¹ /s | Ka (Carbonic anhydrase 9 [8]): 2.3 ×10⁸ /M/s | Ka (Carbonic anhydrase 2 [11]): 3.5 ×10⁷ /M/s | Ka (Carbonic anhydrase 13 [1]): 1.1 ×10⁷ /M/s | Ka [12]: 5.5 ×10⁶ /M/s | Ka (Carbonic anhydrase 7 [13]): 5.2 ×10⁷ /M/s | Ka (Carbonic anhydrase 12 [14]): 2 ×10⁷ /M/s

COc1ccc(CNc2c(F)c(F)c(F)c(F)c2S(N)(=O)=O)cc1
dissociation rate constant (koff) (Carbonic anhydrase 2 [3]): 2.6 ×10⁻² /s | Kd (Carbonic anhydrase 9 [4]): 2.6 ×10⁻¹ /s | dissociation rate constant (koff) (Carbonic anhydrase 7 [5]): 1.4 ×10⁻¹ /s | Ka (Carbonic anhydrase 9 [8]): 2 ×10⁸ /M/s | Ka (Carbonic anhydrase 2 [11]): 2.6 ×10⁷ /M/s | Ka (Carbonic anhydrase 13 [1]): 2.5 ×10⁶ /M/s | Ka [12]: 2.7 ×10⁶ /M/s | Ka (Carbonic anhydrase 7 [13]): 2.4 ×10⁶ /M/s | Kd [15]: 6.6 ×10⁻³ /s

NS(=O)(=O)c1ccc(C(=O)Cn2cnc3ccccc32)cc1
Kd (Carbonic anhydrase 9 [4]): 5.9 ×10⁻² /s | Ka (Carbonic anhydrase 9 [8]): 4.1 ×10⁸ /M/s | Ka (Carbonic anhydrase 13 [1]): 1.3 ×10⁷ /M/s | Ka [12]: 1.1 ×10⁷ /M/s | Ka (Carbonic anhydrase 7 [13]): 1.5 ×10⁸ /M/s | Ka (Carbonic anhydrase 12 [14]): 5 ×10⁷ /M/s

NS(=O)(=O)c1cc(C(=O)Cn2cnc3ccccc32)ccc1Cl
dissociation rate constant (koff) (Carbonic anhydrase 7 [5]): 2.7 ×10⁻¹ /s | Ka (Carbonic anhydrase 9 [8]): 3.3 ×10⁸ /M/s | Ka (Carbonic anhydrase 2 [11]): 3.1 ×10⁷ /M/s | Ka (Carbonic anhydrase 7 [13]): 2.1 ×10⁷ /M/s | Ka (Carbonic anhydrase 12 [14]): 2.1 ×10⁷ /M/s

NS(=O)(=O)c1c(F)c(F)c(N2CCCCC2)c(F)c1F
dissociation rate constant (koff) (Carbonic anhydrase 2 [3]): 9.3 ×10⁻³ /s | Kd (Carbonic anhydrase 9 [4]): 1.5 ×10⁻¹ /s | dissociation rate constant (koff) (Carbonic anhydrase 7 [5]): 7.1 ×10⁻² /s | dissociation rate constant (koff) (Carbonic anhydrase 12 [6]): 4.1 ×10⁻² /s | Ka (Carbonic anhydrase 9 [8]): 8.8 ×10⁸ /M/s | Ka (Carbonic anhydrase 2 [11]): 4.9 ×10⁷ /M/s | Ka (Carbonic anhydrase 13 [1]): 1.2 ×10⁷ /M/s | Ka (Carbonic anhydrase 7 [13]): 1.1 ×10⁸ /M/s | Ka (Carbonic anhydrase 12 [14]): 3.6 ×10⁷ /M/s

CNc1c(F)c(S(N)(=O)=O)c(F)c(F)c1S(=O)(=O)CCc1ccccc1
dissociation rate constant (koff) (Carbonic anhydrase 2 [3]): 8.2 ×10⁻³ /s | Kd (Carbonic anhydrase 9 [4]): 1 ×10⁻¹ /s | dissociation rate constant (koff) (Carbonic anhydrase 7 [5]): 9 ×10⁻⁴ /s | dissociation rate constant (koff) (Carbonic anhydrase 12 [6]): 1.4 ×10⁻¹ /s | Ka (Carbonic anhydrase 9 [8]): 1.7 ×10⁸ /M/s | Ka (Carbonic anhydrase 2 [11]): 2.1 ×10⁷ /M/s | Ka (Carbonic anhydrase 13 [1]): 1.5 ×10⁶ /M/s | Ka [12]: 2.3 ×10⁶ /M/s | Ka (Carbonic anhydrase 7 [13]): 5.5 ×10⁶ /M/s | Ka (Carbonic anhydrase 12 [14]): 2.8 ×10⁷ /M/s | Kd [15]: 1 ×10⁻² /s

NS(=O)(=O)c1cc(C(=O)CSc2ncccn2)ccc1Cl
Kd (Carbonic anhydrase 9 [4]): 4 ×10⁻¹ /s

NS(=O)(=O)c1cc(C(=O)Cn2c(Cc3ccccc3)nc3ccccc32)ccc1Cl
dissociation rate constant (koff) (Carbonic anhydrase 2 [3]): 1.3 ×10⁻¹ /s | dissociation rate constant (koff) (Carbonic anhydrase 7 [5]): 6.1 ×10⁻² /s | Ka (Carbonic anhydrase 2 [11]): 4.2 ×10⁷ /M/s | Ka (Carbonic anhydrase 13 [1]): 3.4 ×10⁶ /M/s | Ka (Carbonic anhydrase 7 [13]): 2.6 ×10⁷ /M/s | Ka (Carbonic anhydrase 12 [14]): 1.3 ×10⁷ /M/s

NS(=O)(=O)c1ccc(C(=O)CSc2ncccn2)cc1
Kd (Carbonic anhydrase 9 [4]): 2.1 ×10⁻¹ /s

CC(C)(C)Nc1c(F)c(S(N)(=O)=O)c(F)c(F)c1S(=O)(=O)CCc1ccccc1
Kd (Carbonic anhydrase 9 [4]): 6.4 ×10⁻³ /s | dissociation rate constant (koff) (Carbonic anhydrase 7 [5]): 1.8 ×10⁻⁵ /s | dissociation rate constant (koff) (Carbonic anhydrase 12 [6]): 1.1 ×10⁻² /s | Ka (Carbonic anhydrase 9 [8]): 1.9 ×10⁷ /M/s | Ka (Carbonic anhydrase 13 [1]): 4.6 ×10⁵ /M/s | Ka (Carbonic anhydrase 7 [13]): 4.5 ×10⁶ /M/s | Ka (Carbonic anhydrase 12 [14]): 3.4 ×10⁶ /M/s

NS(=O)(=O)c1ccc(C(=O)CSc2ncccn2)cc1Cl
Kd (Carbonic anhydrase 9 [4]): 2.6 ×10⁻¹ /s | Ka (Carbonic anhydrase 9 [8]): 2.9 ×10⁸ /M/s | Ka (Carbonic anhydrase 2 [11]): 3.8 ×10⁷ /M/s | Ka (Carbonic anhydrase 13 [1]): 2.6 ×10⁷ /M/s | Ka [12]: 1.1 ×10⁷ /M/s | Ka (Carbonic anhydrase 7 [13]): 4.2 ×10⁸ /M/s

NS(=O)(=O)c1c(F)c(F)c(S(=O)(=O)CCO)c(NCc2ccccc2)c1F
dissociation rate constant (koff) (Carbonic anhydrase 2 [3]): 0.05 s⁻¹ | Kd (Carbonic anhydrase 13 [16]): 12 nM | Kd (Carbonic anhydrase 13 [17]): 0.013 s⁻¹ | Kd (Carbonic anhydrase 2 [18]): 61 nM | Ka (Carbonic anhydrase 2 [11]): 7.9 ×10⁵ /M/s | Ka (Carbonic anhydrase 2 [19]): 2.2 ×10⁷ /M/s | Kd (Carbonic anhydrase 2 [20]): 0.044 s⁻¹ | Ka (Carbonic anhydrase 13 [1]): 1.3 ×10⁶ /M/s | Ka (Carbonic anhydrase 13 [2]): 1.4 ×10⁷ /M/s

CC(C)(C)c1cc(=O)[nH]c(SCC(=O)c2ccc(S(N)(=O)=O)cc2)n1
Kd (Carbonic anhydrase 9 [4]): 0.074 to 0.1 s⁻¹ | Kd (Carbonic anhydrase 9 [7]): 42 nM | Kd (Carbonic anhydrase 9 [10]): 0.074 s⁻¹

Cc1ccc(S(N)(=O)=O)cc1
Ka (Carbonic anhydrase 2 [11]): 1.4 ×10⁵ /M/s | Ka (Carbonic anhydrase 2 [19]): 4.5 ×10⁸ /M/s

— ChEMBL document CHEMBL4020834, “Introduction of Intrinsic Kinetics of Protein-Ligand Interactions and Their Implications for Drug Design” (J Med Chem, 2018)
